# Assay results as given in ChEMBL document CHEMBL1151725, “A cell wall-active lipopeptide from the fungus Pochonia bulbillosa” (2008).
# Test system: Neurospora crassa
# Assay: Antifungal activity against Neurospora crassa os-1 mutant assessed as zone of protoplast production at 600 ng/disk after 36 to 48 hrs by microscopic examination
# Type: functional
smiles,measurement,value
CCCCCCCCCC(O)CCCC(=O)N[C@H](C(=O)N[C@H](C)C(=O)N[C@@H](C)C(=O)N[C@@H](C)C(=O)N[C@H](Cc1ccc(O)cc1)C(=O)N[C@H](C(=O)O)C(C)C)[C@@H](C)O (stereo partly specified),Activity,20 mm
